In patent publication US4146637A, “Anti-inflammatory N-acyl substituted benzamides” (priority 1976, dated 1979):
Structures can show the parent of a compound that is named as a salt. Where two headings read alike, the source gives them in different places.

Experiments:
Adjuvans arthritis = Adjuvans arthritis stoppage; format: in vivo, rat; conditions: for anti-inflammatory activity in the adjuvenous arthritis test: result in words; for Adjuvans arthritis stoppage, percent inhibition of the secondary lesions on the 14th day (first value) / Adjuvans arthritis stoppage, percent inhibition of the secondary lesions on the 14th day (second value): rat, 100 mg/kg p.o.; for Adjuvans arthritis stoppage, percent inhibition of the secondary lesions on the 14th day (first value): first of two values; for Adjuvans arthritis stoppage, percent inhibition of the secondary lesions on the 14th day (second value): second of two values
Procedure: (§1) As the results of Table 3 show, the compounds of this invention have both lower toxicity and different side effects than metoclopramide. Compounds of this invention have interesting pharmacological characteristics. The pharmaco dynamics of the compounds prepared in Examples 9, 43 and 48 in the form of their hydrochlorides, as well as the reference compound, metoclopramide dihydrochloride, were determined by pharmacological screening for 54 group activities. The activities which were found were confirmed by secondary tests. Additionally, the ED100 of known group-specific comparative compounds is given.

[1] = acute carrageneen experiment; format: in vivo; conditions: result in words
[2] = antimicrobial characteristics (summary statement); conditions: result in words
[3] = antiallergic characteristics (summary statement); conditions: result in words
Muscle relaxant test = format: in vivo, mouse; conditions: po; for minimal effective dose at 300 mg/kg: mouse, p.o., read-out: Muscle relaxant, MED (average minimal effective dose)
Procedure: as §1

Amphetamine stereotype = format: in vivo, mouse; conditions: po
Procedure: as §1

Antiarrhytmic test = format: in vivo; conditions: mouse, i.p.
Procedure: as §1

Antiedematous test = format: in vivo; conditions: po, rat, p.o.; for minimal effective dose: read-out: Antiedematous, MED (average minimal effective dose)
Procedure: as §1

Cataleptic test = format: in vivo, mouse; conditions: po; for minimal effective dose at 100 mg/kg: mouse, p.o., read-out: Cataleptic, MED (average minimal effective dose)
Procedure: as §1

Antiaggressive test = format: in vivo, mouse
Procedure: as §1

Anti-electroshock test = format: in vivo; conditions: po, mouse, p.o.
Procedure: as §1

[4] = Systematic anaphylactic test; format: in vivo; conditions: po, mouse, p.o.
Procedure: as §1

Antiasthmatic test = format: in vivo; conditions: po, rat, p.o.; for minimal effective dose: read-out: Antiasthmatic, MED (average minimal effective dose)
Procedure: as §1

Antithrombotic test = format: in vivo, rat; conditions: po; for minimal effective dose at 100 mg/kg: rat, p.o., read-out: Antithrombotic, MED (average minimal effective dose)
Procedure: as §1

E. Coli = assay: antibacterial test E. Coli, in vitro; format: cell-based; conditions: in vit.
Procedure: as §1

[5] = rat, cited from earlier work
[6] = i.p., mouse; cited from earlier work
β-adrenergic = β-adrenergic blockage, in vitro; design: unit not given here; conditions: in vit., rat, dose 10
Procedure: as §1

**Q.** With `CCN(CC)CCNC(=O)c1cc(Cl)c(NC(=O)COc2ccc(Cl)cc2)cc1OC` [Example 40] as the molecule, how does the “anti-inflammatory activity in the adjuvenous arthritis test” value (Adjuvans arthritis) read?
**A.** very strong anti-inflammatory activity

**Q.** And the “anti-inflammatory activity in the acute carrageneen experiment” value [1]?
**A.** very strong anti-inflammatory activity

**Q.** What about the antimicrobial characteristics [2] of the same molecule?
**A.** weak antimicrobial

**Q.** And the antiallergic characteristics [3]?
**A.** antiallergic characteristics

**Q.** Which minimal effective dose at 300 mg/kg (Muscle relaxant test) does the source give for `CCN(CC)CCNC(=O)c1cc(Cl)c(N)cc1OC` [metoclopramide dihydrochloride] here?
**A.** 100 mg/kg

**Q.** What about the minimal effective dose at 25 mg/kg (Amphetamine stereotype; mouse, p.o., dose 25 mg/kg, read-out: Amphetamine stereotype, MED (average minimal effective dose)) of the same molecule?
**A.** 25 mg/kg

**Q.** What about the minimal effective dose (Antiarrhytmic test; ip, read-out: Antiarrhytmic, MED (average minimal effective dose)) of the same molecule?
**A.** 100 mg/kg

**Q.** What about the minimal effective dose (Antiedematous test) of the same molecule?
**A.** 50 mg/kg

**Q.** What about the minimal effective dose at 100 mg/kg (Cataleptic test) of the same molecule?
**A.** 100 mg/kg

**Q.** What about the Antiaggressive (Antiaggressive test; mouse, p.o., dose 50 mg/kg, MED not given) of the same molecule?
**A.** 50 mg/kg

**Q.** And the minimal effective dose (Anti-electroshock test; read-out: Anti-electroshock, MED (average minimal effective dose))?
**A.** 100 mg/kg

**Q.** With `CN(C)CCOc1ccccc1Cc1ccccc1` [phenyltoloxamine] as the molecule, how does the ED100 ([4]; read-out: Systematic anaphylactic, ED100 of reference compound) read?
**A.** 50 mg/kg

**Q.** With `O=C1NC(=O)C(c2ccccc2)(c2ccccc2)N1` [diphenylhydomtoin] as the molecule, how does the ED100 (Anti-electroshock test; read-out: Anti-electroshock, ED100 of reference compound) read?
**A.** 10 mg/kg

**Q.** With `CCN(CC)CCNC(=O)c1cc(Cl)c(NC(=O)C(C)Oc2ccc(Cl)cc2)cc1OC` (stereo not drawn) [Example 45] as the molecule, how does the “anti-inflammatory activity in the adjuvenous arthritis test” value (Adjuvans arthritis) read?
**A.** very strong anti-inflammatory activity

**Q.** And the “anti-inflammatory activity in the acute carrageneen experiment” value [1]?
**A.** very strong anti-inflammatory activity

**Q.** And the antimicrobial characteristics [2]?
**A.** weak antimicrobial

**Q.** What about the antiallergic characteristics [3] of the same molecule?
**A.** antiallergic characteristics

**Q.** For guanidine, which “Antiarrhytmic, ED100 of reference compound” value (Antiarrhytmic test) is on record?
**A.** 100 mg/kg

**Q.** With `O=C(O)c1cc(=O)c2c(OCC(O)COc3cccc4oc(C(=O)O)cc(=O)c34)cccc2o1` [chromoglycine-sodium] as the molecule, how does the ED100 (Antiasthmatic test; read-out: Antiasthmatic, ED100 of reference compound) read?
**A.** 60 mg/kg

**Q.** Which minimal effective dose (Antiasthmatic test) does the source give for `CCN(CC)CCNC(=O)c1cc(Cl)c(NC(=O)C(C)Oc2ccc(Cl)cc2)cc1OC` (stereo not drawn) [Example 48] here?
**A.** 100 mg/kg

**Q.** What about the minimal effective dose at 100 mg/kg (Antithrombotic test) of the same molecule?
**A.** 100 mg/kg

**Q.** What about the “Adjuvans arthritis stoppage, percent inhibition of the secondary lesions on the 14th day (first value)” value (Adjuvans arthritis) of the same molecule?
**A.** 45%

**Q.** And the “Adjuvans arthritis stoppage, percent inhibition of the secondary lesions on the 14th day (second value)” value (Adjuvans arthritis)?
**A.** 33%

**Q.** Which results are given for `CN(C)CCCN1c2ccccc2Sc2ccc(Cl)cc21` [chlorpromazine]?
**A.** ED100 (Amphetamine stereotype; Mus musculus, read-out: Amphetamine stereotype, ED100 of reference compound): 5 mg/kg; ED100 (Antiaggressive test; Mus musculus, po, read-out: Antiaggressive, ED100 of reference compound): 5 mg/kg

**Q.** With `CC(=O)Oc1ccccc1C(=O)O` [acetylsalicylic acid] as the molecule, how does the ED100 (Antithrombotic test; Rattus norvegicus, read-out: Antithrombotic, ED100 of reference compound) read?
**A.** 100 mg/kg

**Q.** Which “E. Coli, ED100 of reference compound” value (E. Coli) does the source give for `CC1(C)S[C@@H]2[C@H](NC(=O)[C@H](N)c3ccccc3)C(=O)N2[C@H]1C(=O)O` [ampicillin] here?
**A.** 0.5 mg/kg

**Q.** Which results are given for `CCC1(c2ccccc2)C(=O)NC(=O)NC1=O` [phenobarbital]?
**A.** ED100 (Muscle relaxant test; Mus musculus, read-out: Muscle relaxant, ED100 of reference compound): 100 mg/kg; ED100 (Cataleptic test; Mus musculus, read-out: Cataleptic, ED100 of reference compound): 100 mg/kg

**Q.** With `CCN(CC)CCNC(=O)c1cc(Cl)c(N)cc1OC` [metoclopramide] as the molecule, how does the LD50 ([5]; i.p.) read?
**A.** 180 mg/kg

**Q.** What about the LD50 ([5]; oral) of the same molecule?
**A.** 235 mg/kg

**Q.** What about the LD50 [6] of the same molecule?
**A.** 242 mg/kg

**Q.** Which ED100 (Antiedematous test; read-out: Antiedematous, ED100 of reference compound) does the source give for `CCCCC1C(=O)N(c2ccccc2)N(c2ccccc2)C1=O` [phenybutazone] here?
**A.** 50 mg/kg

**Q.** For `CCN(CC)CCNC(=O)c1cc(Cl)c(NC(=O)C(C)(C)Oc2ccc(Cl)cc2)cc1OC` [Example 9], which “β-adrenergic blockage, MEC (average effective concentration)” value (β-adrenergic) is on record?
**A.** 10

**Q.** With `CCN(CC)CCNC(=O)c1cc(Cl)c(NC(=O)COc2ccc(Cl)cc2)cc1OC` [Example 43] as the molecule, how does the minimal effective dose at 300 mg/kg (Muscle relaxant test) read?
**A.** 300 mg/kg

**Q.** What about the minimal effective dose (Antiedematous test) of the same molecule?
**A.** 100 mg/kg

**Q.** What about the minimal effective dose at 100 mg/kg (Cataleptic test) of the same molecule?
**A.** 100 mg/kg

**Q.** What about the minimal effective dose (Antiasthmatic test) of the same molecule?
**A.** 100 mg/kg

**Q.** What about the minimal effective dose at 100 mg/kg (Antithrombotic test) of the same molecule?
**A.** 50 mg/kg

**Q.** What about the minimal effective dose ([4]; read-out: Systematic anaphylactic, MED (average minimal effective dose)) of the same molecule?
**A.** 100 mg/kg

**Q.** What about the “Adjuvans arthritis stoppage, percent inhibition of the secondary lesions on the 14th day (first value)” value (Adjuvans arthritis) of the same molecule?
**A.** 43%

**Q.** What about the “Adjuvans arthritis stoppage, percent inhibition of the secondary lesions on the 14th day (second value)” value (Adjuvans arthritis) of the same molecule?
**A.** 46%
